Data reported in ChEMBL document CHEMBL5465560, “Selectivity Literature for EUbOPEN Chemogenomic Library” (2024).

Key:
[1] = target: T1, Histone-arginine methyltransferase CARM1 (Homo sapiens) (UniProt Q86X55); conditions: KMS-12-PE, at 3 µM
T1 sequence (whole entry): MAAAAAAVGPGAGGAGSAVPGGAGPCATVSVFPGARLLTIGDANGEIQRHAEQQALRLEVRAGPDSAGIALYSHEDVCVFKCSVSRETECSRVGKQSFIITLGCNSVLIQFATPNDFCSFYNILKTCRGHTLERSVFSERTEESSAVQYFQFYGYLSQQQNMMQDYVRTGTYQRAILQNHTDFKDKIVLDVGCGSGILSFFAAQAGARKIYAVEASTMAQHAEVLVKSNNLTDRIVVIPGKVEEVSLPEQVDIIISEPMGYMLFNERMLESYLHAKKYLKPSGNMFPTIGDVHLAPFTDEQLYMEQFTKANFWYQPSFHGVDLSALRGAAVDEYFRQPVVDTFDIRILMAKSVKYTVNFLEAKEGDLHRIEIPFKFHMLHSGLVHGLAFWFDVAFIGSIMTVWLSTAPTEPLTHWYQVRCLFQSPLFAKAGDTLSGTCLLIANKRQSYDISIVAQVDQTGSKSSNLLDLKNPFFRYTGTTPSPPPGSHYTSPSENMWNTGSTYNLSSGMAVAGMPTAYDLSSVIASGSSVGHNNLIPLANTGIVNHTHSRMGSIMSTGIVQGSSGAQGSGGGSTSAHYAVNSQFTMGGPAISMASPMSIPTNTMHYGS

[2] = target: T2, Serine/threonine-protein kinase tousled-like 1 (Homo sapiens) (UniProt Q9UKI8); conditions: at 10 µM
T2 sequence (whole entry): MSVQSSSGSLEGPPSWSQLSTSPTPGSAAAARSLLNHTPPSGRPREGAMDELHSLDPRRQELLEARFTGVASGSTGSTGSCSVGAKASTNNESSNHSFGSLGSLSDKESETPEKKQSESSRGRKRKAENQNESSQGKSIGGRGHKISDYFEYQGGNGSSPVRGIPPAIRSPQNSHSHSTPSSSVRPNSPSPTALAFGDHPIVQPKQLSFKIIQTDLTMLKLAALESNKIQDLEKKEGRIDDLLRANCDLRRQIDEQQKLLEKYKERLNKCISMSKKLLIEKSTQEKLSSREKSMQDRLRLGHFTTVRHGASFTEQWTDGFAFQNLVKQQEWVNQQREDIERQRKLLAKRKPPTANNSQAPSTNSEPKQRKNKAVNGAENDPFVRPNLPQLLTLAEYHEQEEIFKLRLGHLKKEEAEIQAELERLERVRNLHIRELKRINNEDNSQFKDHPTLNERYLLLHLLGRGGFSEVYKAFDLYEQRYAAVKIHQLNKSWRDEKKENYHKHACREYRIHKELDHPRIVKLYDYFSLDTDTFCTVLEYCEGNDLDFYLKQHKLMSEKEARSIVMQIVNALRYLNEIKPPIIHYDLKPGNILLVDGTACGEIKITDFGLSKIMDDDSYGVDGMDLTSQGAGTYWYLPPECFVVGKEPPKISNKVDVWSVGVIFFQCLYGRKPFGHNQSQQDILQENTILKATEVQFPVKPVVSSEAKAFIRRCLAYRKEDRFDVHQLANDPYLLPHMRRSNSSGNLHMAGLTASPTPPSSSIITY

[3] = target: T3, Serine/threonine-protein kinase LATS1 (Homo sapiens) (UniProt O95835); assay: Selectivity interaction (KinomeScan (DiscoverX)) EUB0000695a LATS1; conditions: at 100 nM
T3 sequence (whole entry): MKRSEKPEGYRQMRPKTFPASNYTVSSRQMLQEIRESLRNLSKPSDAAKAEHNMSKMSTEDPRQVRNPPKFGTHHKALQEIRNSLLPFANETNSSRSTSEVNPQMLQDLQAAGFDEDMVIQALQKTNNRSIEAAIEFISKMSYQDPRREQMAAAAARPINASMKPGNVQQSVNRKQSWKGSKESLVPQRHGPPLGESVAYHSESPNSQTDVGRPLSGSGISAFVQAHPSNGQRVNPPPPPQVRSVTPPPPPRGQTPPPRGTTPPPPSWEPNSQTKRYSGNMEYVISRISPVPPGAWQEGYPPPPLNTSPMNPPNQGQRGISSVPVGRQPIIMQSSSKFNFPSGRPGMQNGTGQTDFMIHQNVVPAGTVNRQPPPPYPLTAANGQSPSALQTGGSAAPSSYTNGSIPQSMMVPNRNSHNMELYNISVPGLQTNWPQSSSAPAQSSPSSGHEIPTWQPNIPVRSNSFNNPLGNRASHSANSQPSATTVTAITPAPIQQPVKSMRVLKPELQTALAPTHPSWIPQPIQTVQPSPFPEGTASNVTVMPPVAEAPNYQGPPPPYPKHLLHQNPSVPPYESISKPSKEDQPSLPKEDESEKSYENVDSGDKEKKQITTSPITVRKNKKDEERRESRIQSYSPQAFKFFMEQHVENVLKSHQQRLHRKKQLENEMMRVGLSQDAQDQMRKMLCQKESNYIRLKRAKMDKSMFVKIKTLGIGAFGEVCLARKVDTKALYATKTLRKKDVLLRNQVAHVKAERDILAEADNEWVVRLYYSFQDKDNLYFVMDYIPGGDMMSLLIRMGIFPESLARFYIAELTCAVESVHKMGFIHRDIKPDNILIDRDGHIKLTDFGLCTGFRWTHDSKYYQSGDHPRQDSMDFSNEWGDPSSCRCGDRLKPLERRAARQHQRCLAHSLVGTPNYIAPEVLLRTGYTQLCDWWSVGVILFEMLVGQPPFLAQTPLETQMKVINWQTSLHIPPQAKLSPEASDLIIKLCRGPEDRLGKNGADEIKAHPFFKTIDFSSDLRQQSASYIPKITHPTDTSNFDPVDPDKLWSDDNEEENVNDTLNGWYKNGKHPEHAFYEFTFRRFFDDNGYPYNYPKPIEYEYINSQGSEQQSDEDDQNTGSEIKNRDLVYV

Structure (SMILES): CNCCN1CCC(c2cc(CN(C)C(=O)c3cccc(Oc4ccccc4)c3)ccn2)CC1
- % of growth rate [1]: -4.4%

Structure (SMILES): CCN(CC)CCCCNc1ncc2cc(-c3cc(OC)cc(OC)c3)c(NC(=O)NC(C)(C)C)nc2n1
- % of control [2]: 100%

Structure (SMILES): Cc1cc(F)c(C(=O)Nc2cccc(-c3nncn3C(C)C)n2)cc1-n1cnc(C2CC2)c1
- % of control [3]: 86%
